In general, IC50 refers to the midpoint of a concentration-inhibition curve.

Molecules are shown by their SMILES.

For the first assay, the system named is HCV RNA replication (replicon cell lines Huh-7, 5.2 and ET). In words: Cell-Based Luciferase Reporter HCV RNA Replication Assay. Conditions: Hepatitis C virus, Huh-7, 96 h. For orientation: A reporter such as luciferase makes a cellular process visible.
For `CC1CCC(C(=O)N(c2cc(C3=CC4CCC3C4)sc2C(=O)O)C2CCC(O)CC2)CC1` (stereo not drawn) [Compound 28, 5-bicyclo[2.2.1]hept-2-en-2-yl-3-[(4-trans-hydroxy-cyclohexyl)-(4-trans-methyl-cyclohexanecarbonyl)-amino]-thiophene-2-carboxylic acid], the IC50 was more than 25 µM.

Still in this assay, the particulars now being: Hepatitis C virus, Huh-7, 96 h, Huh-7, 5.2 or ET replicon cells, luciferase counts after 4 days incubation; read-out: IC50.
For `C[C@H]1CC[C@H](C(=O)N(c2cc(C3CCCCC3)sc2C(=O)O)[C@H]2CC[C@H](O)CC2)CC1` [Compound 2, 5-Cyclohexyl-3-[(trans-4-hydroxy-cyclohexyl)-(trans-4-methyl-cyclohexanecarbonyl)-amino]-thiophene-2-carboxylic acid], the IC50 was less than 5 µM.
As for `C[C@H]1CC[C@H](C(=O)N(c2cc(C3=CCCC3)sc2C(=O)O)[C@H]2CC[C@H](O)CC2)CC1` [Compound 3, 5-Cyclopent-1-enyl-3-[(trans-4-hydroxy-cyclohexyl)-(trans-4-methyl-cyclohexanecarbonyl)-amino]-thiophene-2-carboxylic acid], the IC50 was less than 5 µM.
On the same count and under the same terms, the value for `C[C@H]1CC[C@H](C(=O)N(c2cc(C3=CCCCCC3)sc2C(=O)O)[C@H]2CC[C@H](O)CC2)CC1` [Compound 5, 5-Cyclohept-1-enyl-3-[(trans-4-hydroxy-cyclohexyl)-(trans-4-methyl-cyclohexanecarbonyl)-amino]-thiophene-2-carboxylic acid] was less than 5 µM; that for `C[C@H]1CC[C@H](C(=O)N(c2cc(C3CCCCCC3)sc2C(=O)O)[C@H]2CC[C@H](O)CC2)CC1` [Compound 6, 5-Cycloheptyl-3-[(trans-4-hydroxy-cyclohexyl)-(trans-4-methyl-cyclohexanecarbonyl)-amino]-thiophene-2-carboxylic acid] was less than 5 µM.
Take `CC(C)N(c1cc(C2=CCCCC2)sc1C(=O)O)C(=O)[C@H]1CC[C@H](C)CC1` [Compound 7, 5-Cyclohex-1-enyl-3-[isopropyl-(trans-4-methyl-cyclohexanecarbonyl)-amino]-thiophene-2-carboxylic acid]: the IC50 was less than 5 µM.
Consider `C[C@H]1CC[C@H](C(=O)N(c2cc(C3=CCCCC3)sc2C(=O)O)C2CCC(=O)CC2)CC1` [Compound 8, 5-Cyclohex-1-enyl-3-[(trans-4-methyl-cyclohexanecarbonyl)-(4-oxo-cyclohexyl)-amino]-thiophene-2-carboxylic acid], for which the IC50 is less than 5 µM.
With `C[C@H]1CC[C@H](C(=O)N(c2cc(C3=CCCCC3)sc2C(=O)O)[C@H]2CC[C@@H](O)CC2)CC1` [Compound 9, 5-Cyclohex-1-enyl-3-[(cis-4-hydroxy-cyclohexyl)-(trans-4-methyl-cyclohexanecarbonyl)-amino]-thiophene-2-carboxylic acid], the IC50 was less than 5 µM.
On the same count and under the same terms, the value for `C[C@H]1CC[C@H](C(=O)N(c2ccccc2)c2cc(C3=CCCCC3)sc2C(=O)O)CC1` [Compound 10, 5-Cyclohex-1-enyl-3-[(trans-4-methyl-cyclohexanecarbonyl)-phenyl-amino]-thiophene-2-carboxylic acid] was less than 5 µM.
Turning to `C[C@H]1CC[C@H](C(=O)N(c2cc(C3=CCCCC3)sc2C(=O)O)C2CCCCC2)CC1` [Compound 11, 5-Cyclohex-1-enyl-3-[cyclohexyl-(trans-4-methyl-cyclohexanecarbonyl)-amino]-thiophene-2-carboxylic acid], the IC50 was less than 5 µM.
For `CO[C@H]1CC[C@H](N(c2cc(C3=CCCCC3)sc2C(=O)O)C(=O)[C@H]2CC[C@H](C)CC2)CC1` [Compound 12, 5-Cyclohex-1-enyl-3-[(trans-4-methoxy-cyclohexyl)-(trans-4-methyl-cyclohexanecarbonyl)-amino]-thiophene-2-carboxylic acid], the IC50 is less than 5 µM.
In the case of `CC1CCC(C(=O)N(c2cc(C3=CCC4(CC3)OCCO4)sc2C(=O)O)C2CCC(O)CC2)CC1` (stereo not drawn) [Compound 14, 5-(1,4,Dioxa-spiro[4.5.]dec-7-en-8-yl)-3-[(trans-4-hydroxy-cyclohexyl)-(trans-4-methyl-cyclohexanecarbonyl)-amino]-thiophene-2-carboxylic acid], the IC50 is less than 5 µM.
On the same count and under the same terms, the value for `CC(C)N(C(=O)c1ccc(Cl)cc1Cl)c1cc(C2=CCCC2)sc1C(=O)O` [Compound 15, 5-Cyclopent-1-enyl-3-[(2,4-dichloro-benzoyl)-isopropyl-amino]-thiophene-2-carboxylic acid] was more than 25 µM; that for `C[C@H]1CC[C@H](C(=O)N(c2cc(C3=CCCC3)sc2C(=O)O)[C@H]2CC[C@H](O)CC2)CC1` [Compound 16, 5-Cyclopent-1-enyl-3-[(trans-4-hydroxy-cyclohexyl)-(trans-4-methyl-cyclohexanecarbonyl)-amino]-thiophene-2-carboxylic acid] was less than 5 µM; that for `CO[C@H]1CC[C@H](N(c2cc(C3=CCC(C)(C)CC3)sc2C(=O)O)C(=O)[C@H]2CC[C@H](C)CC2)CC1` [Compound 20, 5-(4,4-Dimethyl-cyclohex-1-enyl)-3-[(trans-4-methoxy-cyclohexyl)-(trans-4-methyl-cyclohexanecarbonyl)-amino]-thiophene-2-carboxylic acid] was less than 5 µM.
Take `CO[C@H]1CC[C@H](N(c2cc(C3CCC(C)(C)CC3)sc2C(=O)O)C(=O)[C@H]2CC[C@H](C)CC2)CC1` [Compound 21, 5-(4,4-Dimethyl-cyclohexyl)-3-[(trans-4-methoxy-cyclohexyl)-(trans-4-methyl-cyclohexanecarbonyl)-amino]-thiophene-2-carboxylic acid]: the IC50 was less than 5 µM.
Same read-out and setting: as for `CCO[C@H]1CC[C@H](N(c2cc(C3=CCCCC3)sc2C(=O)O)C(=O)[C@H]2CC[C@H](C)CC2)CC1` [Compound 22, 5-Cyclohex-1-enyl-3-[(trans-4-ethoxy-cyclohexyl)-(trans-4-methyl-cyclohexanecarbonyl)-amino]-thiophene-2-carboxylic acid], the figure is less than 5 µM; as for `COC1CCC(N(C(=O)C2CCC(C)CC2)c2cc(C3=CCCCC3)sc2C(=O)O)CC1` (stereo not drawn) [Compound 23, 5-Cyclohex-1-enyl-3-[(cis-4-methoxy-cyclohexyl)-(4-trans-methyl-cyclohexanecarbonyl)-amino]-thiophene-2-carboxylic acid], less than 5 µM; as for `COCO[C@H]1CC[C@H](N(c2cc(C3=CCCCC3)sc2C(=O)O)C(=O)[C@H]2CC[C@H](C)CC2)CC1` [Compound 24, 5-Cyclohex-1-enyl-3-[(trans-4-methoxymethoxy-cyclohexyl)-(trans-4-methyl-cyclohexanecarbonyl)-amino]-thiophene-2-carboxylic acid], less than 5 µM.
Turning to `CC1CCC(C(=O)N(c2cc(C3=CCC(=O)CC3)sc2C(=O)O)C2CCC(O)CC2)CC1` (stereo not drawn) [Compound 25, 3-[(4-trans-hydroxy-cyclohexyl)-(4-trans-methyl-cyclohexanecarbonyl)-amino]-5-(4-oxo-cyclohex-1-enyl)-thiophene-2-carboxylic acid], the IC50 is 5 to 25 µM.
`CC1CCC(C(=O)N(c2cc(C3=CC/C(=N/OCc4ccccc4)CC3)sc2C(=O)O)C2CCC(O)CC2)CC1` (stereo not drawn) [Compound 26, 5-{4-benzyloxyimino-cyclohex-1-enyl}-3-[(4-trans-hydroxy-cyclohexyl)-(4-trans-methyl-cyclohexanecarbonyl)-amino]-thiophene-2-carboxylic acid]: the IC50 is less than 5 µM.
As for `CCO/N=C1/CC=C(c2cc(N(C(=O)C3CCC(C)CC3)C3CCC(O)CC3)c(C(=O)O)s2)CC1` (stereo not drawn) [Compound 27, 5-{4-ethoxyimino-cyclohex-1-enyl}-3-[(4-trans-hydroxy-cyclohexyl)-(4-trans-methyl-cyclohexanecarbonyl)-amino]-thiophene-2-carboxylic acid], the IC50 is less than 5 µM.
For `C[C@H]1CC[C@H](C(=O)N(c2cc(C3=CCCCC3)sc2C(=O)O)C2CCOCC2)CC1` [Compound 29, 5-cyclohex-1-enyl-3-[(trans-4-methyl-cyclohexanecarbonyl)-(tetrahydro-pyran-4-yl)-amino]-thiophene-2-carboxylic acid], the half-inhibitory concentration (IC50) is less than 5 µM.
On the same count and under the same terms, as for `C[C@H]1CC[C@H](C(=O)N(c2cc(C3=CCCCC3)sc2C(=O)O)C2COCOC2)CC1` [Compound 30, 5-cyclohex-1-enyl-3-[[1,3]dioxan-5-yl-(trans-4-methylcyclohexanecarbonyl)-amino]-thiophene-2-carboxylic acid], the figure is less than 5 µM; as for `CC(C)N(C(=O)c1ccc(Cl)cc1Cl)c1cc(C2=CCCCC2)sc1C(=O)O` [Compound 31, 5-cyclohex-1-enyl-3-[(2,4-dichloro-benzoyl)-isopropyl-amino]-thiophene-2-carboxylic acid], 5 to 25 µM.
Regarding `CC1CCC(C(=O)N(c2cc(C3=CCC(O)CC3)sc2C(=O)O)C2CCC(O)CC2)CC1` (stereo not drawn) [Compound 34, RS-5-(4-hydroxy-cyclohex-1-enyl)-3-[(4-trans-hydroxy-cyclohexyl)-(4-trans-methyl-cyclohexanecarbonyl)-amino]-thiophene-2-carboxylic acid], the IC50 was less than 5 µM.
On the same count and under the same terms, the value for `CC1CCC(C(=O)N(c2cc(C3=CCC(C)(C)CC3)sc2C(=O)O)C2CCC(O)CC2)CC1` (stereo not drawn) [Compound 35, 5-(4,4-dimethyl-cyclohex-1-enyl)-3-[(4-trans-4-hydroxy-cyclohexyl)-(trans-4-methyl-cyclohexanecarbonyl)-amino]-thiophene-2-carboxylic acid] was less than 5 µM; that for `CN(c1cc(C2=CCCCC2)sc1C(=O)O)C(=O)[C@H]1CC[C@H](C)CC1` [Compound 37, 5-cyclohex-1-enyl-3-[methyl-(trans-4-methyl-cyclohexanecarbonyl)-amino]-thiophene-2-carboxylic acid] was 5 to 25 µM.
On to `CC1(C)CCC(N(c2cc(C3=CCCCC3)sc2C(=O)O)C(=O)[C@H]2CC[C@H](C)CC2)CC1` [Compound 38, 5-cyclohex-1-enyl-3-[(4,4-dimethyl-cyclohexyl)-(trans-4-methyl-cyclohexanecarbonyl)-amino]-thiophene-2-carboxylic acid], for which the IC50 was less than 5 µM.
On the same count and under the same terms, the value for `C[C@H]1CC[C@H](C(=O)N(c2cc(C3=CCCCC3)sc2C(=O)O)[C@H]2CC[C@@H](n3cncn3)CC2)CC1` [Compound 41, 5-cyclohex-1-enyl-3-[(trans-4-methyl-cyclohexanecarbonyl)-(cis 4-[1,2,4]triazol-1-yl-cyclohexyl)-amino]-thiophene-2-carboxylic acid] was less than 5 µM.
